Data as given in the supplement of paper PMC6580486.
Structures can show the parent of a compound that is named as a salt.

How the values were obtained:
ESX = tested on: ESX
Procedure: (§1)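 60-agent targeted drug screens (Drug Screen V3 on epithelioid sarcoma cultures PCB490-3/4/5, PCB495, EPS cell lines ESX, VA-ES-BJ, FU-EPS-1 and SkMc myoblasts; PPTI screen v2.1 on human UPS PCB197 and canine UPS S1-12). 384-well plates, 72 h, CellTiter-Glo viability; IC50 by Hill curve fit. 10000 nM = no IC50 achieved (top reported value).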

FU-EPS-1 = tested on: FU-EPS-1
Procedure: as §1

PCB-490-3 = tested on: PCB-490-3 (human epithelioid sarcoma primary culture)
Procedure: as §1

PCB-490-4 = tested on: PCB-490-4 (human epithelioid sarcoma primary culture)
Procedure: as §1

PCB-490-5 = tested on: PCB-490-5 (human epithelioid sarcoma primary culture)
Procedure: as §1

PCB-495 = tested on: PCB-495 (human epithelioid sarcoma primary culture)
Procedure: as §1

SkMc = tested on: SkMc
Procedure: as §1

VA-ES-BJ = tested on: VA-ES-BJ
Procedure: as §1

pcb-00197 = tested on: pcb-00197 (human undifferentiated pleomorphic sarcoma culture)
Procedure: as §1

s1-12 = tested on: s1-12 (canine undifferentiated pleomorphic sarcoma culture)
Procedure: as §1

Compound	IC50 cell viability (ESX) [µM]	IC50 cell viability (FU-EPS-1) [µM]	IC50 cell viability (PCB-490-3) [µM]	IC50 cell viability (PCB-490-4) [µM]	IC50 cell viability (PCB-490-5) [µM]	IC50 cell viability (PCB-495) [µM]	IC50 cell viability (SkMc) [µM]	IC50 cell viability (VA-ES-BJ) [µM]	IC50 cell viability (pcb-00197) [µM]	IC50 cell viability (s1-12) [nM]	IC50 cell viability (U23674) [µM]
Cc1ccc(S(=O)(=O)/C=C/C#N)cc1 [BAY-11-7082]	> 10	> 10	> 10	1.93	0.77	> 10	> 10	0.49			
Cc1ccc(Nc2nccc(N(C)c3ccc4c(C)n(C)nc4c3)n2)cc1S(N)(=O)=O [Pazopanib]	> 10	> 10	> 10	> 10	> 10	> 10	> 10	> 10			
CCCc1c(OCCCOc2cc(O)c(-c3ccc(F)cc3)cc2CC)cccc1Oc1ccccc1C(=O)O	> 10	> 10	> 10	> 10	> 10	> 10	> 10	> 10			
CN(C)C(=N)NC(=N)N [Metformin HCL]	> 10	> 10	> 10	> 10	> 10	> 10	> 10	> 10			
Cc1nnc(C(C)C)n1C1C[C@H]2CC[C@@H](C1)N2CC[C@H](NC(=O)C1CCC(F)(F)CC1)c1ccccc1 (stereo in doubt) [Maraviroc]	> 10	> 10	> 10	> 10	> 10	> 10	> 10	> 10			
O=c1ncccn1[C@@H]1O[C@H](CO)[C@@H](O)[C@H]1O [Zebularine]	> 10	> 10	> 10	> 10	> 10	> 10	> 10	> 10			
O=C(O)c1ccc2c(c1)nc(Nc1cccc(Cl)c1)c1ccncc12 [CX-4945]	> 10	0.14	> 10	6.52	1.2	> 10	1.14	> 10			
CC(C)n1nc(-c2ccc3oc(N)nc3c2)c2c(N)ncnc21 [INK 128]	0.01	> 10	0.26	0.06	0.1	0.14	0.02	0.03			
Cn1cc(NC(=O)c2cc(NC(=O)CNC(=N)N)cn2C)cc1C(=O)NCCC(=N)N [Netropsin Dihydrochloride]	> 10	> 10	> 10	> 10	> 10	5.52	> 10	> 10			
CC(=O)c1c(C)c2cnc(Nc3ccc(N4CCNCC4)cn3)nc2n(C2CCCC2)c1=O	> 10	> 10	> 10	> 10	> 10	> 10	> 10	> 10			
Cc1[nH]c2ccccc2c1CCNCc1ccc(/C=C/C(=O)NO)cc1 [Panobinostat]	0.12	0.15	0.53	0.17	0.11	0.23	0.18	0.02			
Cn1c(=O)n(-c2ccc(C(C)(C)C#N)cc2)c2c3cc(-c4cnc5ccccc5c4)ccc3ncc21 [BEZ235]	0.02	0.14	1.36	0.26	0.2	0.43	0.37	0.08			
Cc1cc(Nc2cc(N3CCN(C)CC3)nc(Sc3ccc(NC(=O)C4CC4)cc3)n2)n[nH]1 [Tozasertib]	> 10	> 10	> 10	3.33	> 10	> 10	2.62	> 10			
O=C(O)CC[C@H](O)C(=O)O [L-a-Hydroxyglutaric acid]	> 10	> 10	> 10	> 10	> 10	> 10	> 10	> 10			
CC(C)(C)Cn1c(N)nc2ccc(-c3[nH]c(C(C)(C)C)nc3-c3ccc(F)cc3)nc21	5.07	> 10	> 10	> 10	> 10	> 10	> 10	> 10			
Cn1cc(C2=C(c3cn(C4CCN(Cc5ccccn5)CC4)c4ccccc34)C(=O)NC2=O)c2ccccc21 [enzastaurin]									> 10	> 10000	
COCC1(CO)C(=O)C2CCN1CC2 (configuration not stated) [APR-246]	0.13	> 10	> 10	0.12	> 10	> 10	> 10	> 10			
Cn1c(=O)n(-c2ccc(C(C)(C)C#N)cc2)c2c3cc(-c4cnc5ccccc5c4)ccc3ncc21 [BEZ 235]									0.57	220	
N#Cc1ccc(COC[C@H]2O[C@@H](n3c(NCc4ccc(Cl)c(Cl)c4)nc4c(N)ncnc43)[C@H](O)[C@@H]2O)cc1									> 10	> 10000	
C[C@@H](Oc1cc(-c2cnn(C3CCNCC3)c2)cnc1N)c1c(Cl)ccc(F)c1Cl [Crizotinib]	4.37	0.94	5.94	1.8	4.62	1.31	0.41	0.53			
COC1=CC(c2cc3ccccc3[nH]2)=N/C1=C\c1[nH]c(C)cc1C [obatoclax]									0.21	40	
CNC(=O)CN1CCC(Oc2cc3c(Nc4cccc(Cl)c4F)ncnc3cc2OC)CC1 [AZD8931]	4.75	> 10	> 10	> 10	> 10	> 10	> 10	> 10			
C[C@]1(c2nc3c(C(N)=O)cccc3[nH]2)CCCN1 [veliparib]									> 10	> 10000	
N#CC[C@H](C1CCCC1)n1cc(-c2ncnc3[nH]ccc23)cn1 [ruxolitinib]									> 10	6930	
CCCS(=O)(=O)Nc1ccc(F)c(C(=O)c2c[nH]c3ncc(-c4ccc(Cl)cc4)cc23)c1F [vemurafenib]									> 10	> 10000	
CC/C(=C(\c1ccccc1)c1ccc(OCCN(C)C)cc1)c1ccccc1 [Tamoxifen]									> 10	> 10000	
Nc1cccc2c1CN(C1CCC(=O)NC1=O)C2=O (configuration not stated) [Lenalidomide]									> 10	2850	

Compound	IC50 cell viability (ESX) [µM]	IC50 cell viability (FU-EPS-1) [µM]	IC50 cell viability (PCB-490-3) [µM]	IC50 cell viability (PCB-490-4) [µM]	IC50 cell viability (PCB-490-5) [µM]	IC50 cell viability (PCB-495) [µM]	IC50 cell viability (SkMc) [µM]	IC50 cell viability (VA-ES-BJ) [µM]	IC50 cell viability (pcb-00197) [µM]	IC50 cell viability (s1-12) [nM]	IC50 cell viability (U23674) [µM]
CCCC(=O)[O-].[Na+] [sodium butyrate]									> 10	1570	
NC(=O)c1ccc(-c2nc(-c3ccccn3)c(-c3ccc4c(c3)OCO4)[nH]2)cc1									> 10	> 10000	> 10
Cc1cc(Nc2cc(N3CCN(C)CC3)nc(Sc3ccc(NC(=O)C4CC4)cc3)n2)n[nH]1 [tozasertib]									> 10	> 10000	
C=C1C[C@@H]2CC[C@@]34C[C@H]5O[C@H]6[C@@H](O3)[C@H]3O[C@H](CC[C@@H]3O[C@H]6[C@H]5O4)CC(=O)C[C@@H]3[C@@H](OC)[C@@H](C[C@H](O)CN)O[C@H]3C[C@H]3O[C@@H](CC[C@@H]1O2)C[C@@H](C)C3=C [Eribulin]									0.01	1310	
NC1(c2ccc(-c3nc4ccn5c(=O)[nH]nc5c4cc3-c3ccccc3)cc2)CCC1 [MK-2206]									> 10	1090	
CS(=O)(=O)CCNCc1ccc(-c2ccc3ncnc(Nc4ccc(OCc5cccc(F)c5)c(Cl)c4)c3c2)o1 [lapatinib]									> 10	> 10000	
COc1cc(Nc2ncc3c(n2)-c2ccc(Cl)cc2C(c2c(F)cccc2OC)=NC3)ccc1C(=O)O [MLN8237]									2.74	980	
CO[C@H]1C[C@@H]2CC[C@@H](C)[C@@](O)(O2)C(=O)C(=O)N2CCCC[C@H]2C(=O)O[C@H]([C@H](C)C[C@@H]2CC[C@@H](OC(=O)C(C)(CO)CO)[C@H](OC)C2)CC(=O)[C@H](C)/C=C(\C)[C@@H](O)[C@@H](OC)C(=O)[C@H](C)C[C@H](C)/C=C/C=C/C=C/1C [temsirolimus]									> 10	> 10000	
Cc1cn(-c2cc(NC(=O)c3ccc(C)c(Nc4nccc(-c5cccnc5)n4)c3)cc(C(F)(F)F)c2)cn1 [Nilotinib]									> 10	> 10000	
CC1=C(/C=C/C(C)=C/C=C/C(C)=C/C(=O)O)C(C)(C)CCC1 [retinoic acid]									> 10	2040	
CC(/C=C/C(=O)NO)=C\[C@@H](C)C(=O)c1ccc(N(C)C)cc1 [trichostatin]									> 10	870	
Cn1cnc2c(F)c(Nc3ccc(Br)cc3Cl)c(C(=O)NOCCO)cc21 [selumetinib]									> 10	1550	
CN(C)c1ccccc1CN1CCCN(Cc2ccccc2N(C)C)C1c1ccncc1 [GANT61]									> 10	> 10000	
CCNC(=O)c1noc(-c2cc(C(C)C)c(O)cc2O)c1-c1ccc(CN2CCOCC2)cc1 [AUY922]									0.4	30	
CC1=C(/C=C/C(C)=C/C=C/C(C)=C/C(=O)Nc2ccc(O)cc2)C(C)(C)CCC1 [Fenretinide]									> 10	1840	
CC(C)C[C@H](NC(=O)[C@H](Cc1ccccc1)NC(=O)c1cnccn1)B(O)O [bortezomib]									4.83	4690	
COc1cc2/c(=N/c3ccc(Br)cc3F)nc[nH]c2cc1OCC1CCN(C)CC1 [Vandetanib]									1.32	1240	
C[C@@H](Oc1cc(-c2cnn(C3CCNCC3)c2)cnc1N)c1c(Cl)ccc(F)c1Cl [crizotinib]									1.53	1180	
Oc1c2ccccc2c2c3c(cccc13)N=N2									> 10	1360	
CN1CCN(CCOc2cc(OC3CCOCC3)c3c(Nc4c(Cl)ccc5c4OCO5)ncnc3c2)CC1 [Saracatinib]									> 10	1510	
COc1nc(C)cnc1NS(=O)(=O)c1cccnc1-c1ccc(-c2nnco2)cc1 [zibotentan]									> 10	> 10000	
CNC(=O)c1cc(Oc2ccc(NC(=O)Nc3ccc(Cl)c(C(F)(F)F)c3)cc2)ccn1 [sorafenib]									> 10	6430	
Nc1ncn([C@H]2C[C@H](O)[C@@H](CO)O2)c(=O)n1 [decitabine]									> 10	330	
CC(C)C[C@H](NC(=O)[C@H](CCc1ccccc1)NC(=O)CN1CCOCC1)C(=O)N[C@@H](Cc1ccccc1)C(=O)N[C@@H](CC(C)C)C(=O)[C@@]1(C)CO1 [carfilzomib]									0.47	990	
C[C@@]1(C(=O)Nc2ccc(F)nc2)CCCN1c1nc(Nc2cc(C3CC3)n[nH]2)c2cccn2n1									2.35	10	
Cc1[nH]c2ccccc2c1CCNCc1ccc(/C=C/C(=O)NO)cc1 [panobinostat]									1.05	100	
CCN(CCCOc1ccc2c(Nc3cc(CC(=O)Nc4cccc(F)c4)[nH]n3)ncnc2c1)CCOP(=O)(O)O [barasertib]									> 10	> 10000	
